Measurements reported in the NIST ThermoML archive (doi:10.1021/acs.jced.6b00772).
Numbers after ± are expanded uncertainties.

Conditions: Fluid (supercritical or subcritical phases), isochoric method

O=C(C(F)(F)C(F)(F)F)C(F)(C(F)(F)F)C(F)(F)F [dodecafluoro-2-methylpentan-3-one]
Conditions	mass density [kg/m3]
333.47 K, 4628.4 kPa	1526.2 ± 6.1
343.46 K, 3695.1 kPa	1489 ± 6
353.46 K, 597.1 kPa	1425.9 ± 5.7
353.46 K, 7818.2 kPa	1488.3 ± 6
363.45 K, 4019 kPa	1425.2 ± 5.7
373.46 K, 849.3 kPa	1348 ± 5.9
373.46 K, 7450.4 kPa	1424.5 ± 5.7
383.46 K, 3567.3 kPa	1347.4 ± 5.4
393.47 K, 6308 kPa	1346.8 ± 5.4
393.5 K, 1730.8 kPa	1273.5 ± 5.1
403.46 K, 831.5 kPa	107.8 ± 39
403.46 K, 9056.2 kPa	1346.1 ± 5.4
403.48 K, 1044.1 kPa	1195.8 ± 39
403.5 K, 3917.8 kPa	1272.9 ± 5.1
413.46 K, 1666.3 kPa	1157.5 ± 6.3
413.48 K, 873.1 kPa	107.8 ± 11
413.48 K, 2784 kPa	1195.2 ± 4.8
413.5 K, 6126.2 kPa	1272.3 ± 5.1
423.47 K, 3219 kPa	1156.9 ± 4.7
423.49 K, 913.6 kPa	107.7 ± 5.4
423.49 K, 4554.9 kPa	1194.6 ± 4.8
423.49 K, 8348.4 kPa	1271.7 ± 5.1
433.46 K, 1423 kPa	209.1 ± 7.5
433.47 K, 4799.8 kPa	1156.4 ± 4.7
433.48 K, 2354.6 kPa	1044.1 ± 4.3
433.49 K, 953.3 kPa	107.7 ± 1.8
433.49 K, 1785.7 kPa	980.1 ± 7.9
433.49 K, 6349 kPa	1194.1 ± 4.8
443.47 K, 1703.9 kPa	270.5 ± 5.5
443.48 K, 1517.2 kPa	209 ± 3.3
443.48 K, 1862.8 kPa	384.5 ± 7
443.48 K, 1909.2 kPa	553.6 ± 11
443.48 K, 2368.4 kPa	932 ± 4.1
443.48 K, 6401.8 kPa	1155.8 ± 4.6
443.49 K, 991.3 kPa	107.6 ± 1.6
443.49 K, 1905.5 kPa	490.7 ± 5.6
443.49 K, 1950.5 kPa	733.6 ± 23
443.5 K, 1925.1 kPa	626.4 ± 43
443.5 K, 1983.4 kPa	797.9 ± 9.4
443.5 K, 2050.5 kPa	844.7 ± 6.5
443.5 K, 2089.1 kPa	861.9 ± 5.6
443.5 K, 2696.6 kPa	979.6 ± 4
443.5 K, 3478.7 kPa	1043.6 ± 4.2
443.5 K, 8156.2 kPa	1193.5 ± 4.8
453.48 K, 3187.2 kPa	931.6 ± 3.9
453.49 K, 1028.2 kPa	107.6 ± 1.5
453.49 K, 2074 kPa	384.3 ± 5.6
453.49 K, 2237.3 kPa	553.3 ± 8.8
453.49 K, 2415.6 kPa	733.2 ± 6.5
453.49 K, 8016.6 kPa	1155.3 ± 4.6
453.5 K, 1608.6 kPa	208.9 ± 2.7
453.5 K, 1836 kPa	270.4 ± 3.2
453.5 K, 2302.1 kPa	626.1 ± 8.5
453.5 K, 2679.9 kPa	844.3 ± 4
453.51 K, 3642.6 kPa	979.1 ± 4
453.51 K, 4628.3 kPa	1043.2 ± 4.2
453.52 K, 2543.8 kPa	797.5 ± 4.8
453.52 K, 2753.3 kPa	861.5 ± 5.8
453.52 K, 9972.1 kPa	1192.9 ± 4.8
453.53 K, 2192.7 kPa	490.4 ± 8.1
463.48 K, 1697.6 kPa	208.8 ± 1.8
463.49 K, 1963.3 kPa	270.2 ± 2.7
463.49 K, 5794.1 kPa	1042.7 ± 4.2
463.5 K, 1065.3 kPa	107.5 ± 1.4
463.5 K, 2277.3 kPa	384.1 ± 3.9
463.5 K, 2561.8 kPa	553 ± 5.7
463.5 K, 2685.7 kPa	625.8 ± 4.9
463.5 K, 2908.5 kPa	732.9 ± 4.4
463.5 K, 4032.8 kPa	931.2 ± 3.8
463.5 K, 9636.7 kPa	1154.7 ± 4.6
463.51 K, 2470.7 kPa	490.2 ± 5.4
463.51 K, 3127.9 kPa	797.1 ± 3.9
463.51 K, 3336.1 kPa	843.9 ± 3.6
463.52 K, 3442 kPa	861.1 ± 3.5
463.52 K, 4610 kPa	978.7 ± 4
473.49 K, 2087.5 kPa	270.1 ± 2.4
473.49 K, 3412 kPa	732.5 ± 3.7
473.49 K, 4891.4 kPa	930.7 ± 3.8
473.5 K, 1102 kPa	107.5 ± 1.3
473.5 K, 1785 kPa	208.7 ± 1.7
473.5 K, 2476.2 kPa	383.9 ± 3.1
473.5 K, 2884.8 kPa	552.8 ± 4.1
473.5 K, 3074.2 kPa	625.5 ± 3.7
473.51 K, 2746.7 kPa	490 ± 3.8
473.51 K, 5591.7 kPa	978.2 ± 4
473.51 K, 6974.8 kPa	1042.2 ± 4.2
473.52 K, 4008.9 kPa	843.5 ± 3.6
473.52 K, 4147 kPa	860.7 ± 3.6
473.53 K, 3727.6 kPa	796.7 ± 3.6
483.48 K, 5762.4 kPa	930.3 ± 3.8
483.49 K, 1870.9 kPa	208.6 ± 1.5
483.49 K, 2209.8 kPa	270 ± 2.1
483.49 K, 2672.1 kPa	383.8 ± 2.7
483.5 K, 3464.6 kPa	625.2 ± 3.2
483.5 K, 3924.7 kPa	732.2 ± 3.4
483.5 K, 8161 kPa	1041.7 ± 4.2
483.51 K, 1138.4 kPa	107.4 ± 1.2
483.51 K, 3208.9 kPa	552.5 ± 3.4
483.52 K, 3020.8 kPa	489.7 ± 3.3
483.52 K, 4336.7 kPa	796.4 ± 3.4
483.52 K, 4691.3 kPa	843.1 ± 3.5
483.52 K, 4863.8 kPa	860.3 ± 3.6
483.52 K, 6584 kPa	977.8 ± 3.9
493.49 K, 1955 kPa	208.5 ± 1.4
493.49 K, 2329.9 kPa	269.9 ± 1.9
493.49 K, 2865 kPa	383.6 ± 2.4
493.5 K, 3858.2 kPa	624.9 ± 3
493.5 K, 4442.7 kPa	731.8 ± 3.2
493.5 K, 6642.5 kPa	929.8 ± 3.8
493.5 K, 9354.4 kPa	1041.2 ± 4.2
493.51 K, 1174.7 kPa	107.4 ± 1.2
493.51 K, 5382.6 kPa	842.7 ± 3.5
493.52 K, 3532.9 kPa	552.2 ± 2.9
493.52 K, 4954.4 kPa	796 ± 3.4
493.52 K, 5589.2 kPa	859.9 ± 3.5
493.53 K, 7585.3 kPa	977.3 ± 3.9
493.54 K, 3292.9 kPa	489.5 ± 2.8
503.49 K, 7526.9 kPa	929.4 ± 3.8
503.5 K, 2038.9 kPa	208.4 ± 1.3
503.5 K, 2448.7 kPa	269.7 ± 1.8
503.51 K, 1210.7 kPa	107.3 ± 1.1
503.51 K, 3055.8 kPa	383.4 ± 2.2
503.51 K, 4251.2 kPa	624.7 ± 2.8
503.52 K, 3562.4 kPa	489.3 ± 2.6
503.52 K, 4964.5 kPa	731.5 ± 3.1
503.53 K, 3855.8 kPa	552 ± 2.7
503.53 K, 5577.4 kPa	795.6 ± 3.3
503.53 K, 6079.9 kPa	842.3 ± 3.5
503.53 K, 6319.5 kPa	859.5 ± 3.5
503.53 K, 8592.1 kPa	976.8 ± 3.9
513.49 K, 2121.4 kPa	208.3 ± 1.3
513.49 K, 2565.8 kPa	269.6 ± 1.7
513.5 K, 1245.5 kPa	107.3 ± 1.1
513.5 K, 4646.1 kPa	624.4 ± 2.7
513.5 K, 5488.2 kPa	731.1 ± 3.1
513.5 K, 8416.4 kPa	928.9 ± 3.8
513.51 K, 3244.9 kPa	383.2 ± 2.1
513.52 K, 4177.8 kPa	551.7 ± 2.6
513.52 K, 6780.4 kPa	841.9 ± 3.4
513.52 K, 7055 kPa	859.1 ± 3.5
513.53 K, 3830.9 kPa	489 ± 2.5
513.53 K, 9599.7 kPa	976.4 ± 3.9
513.54 K, 6204.5 kPa	795.2 ± 3.3
523.49 K, 2682.3 kPa	269.5 ± 1.6
523.49 K, 5040.8 kPa	624.1 ± 2.7
523.49 K, 9308.2 kPa	928.5 ± 3.7
523.5 K, 1281.4 kPa	107.2 ± 1
523.5 K, 2203.4 kPa	208.2 ± 1.2
523.5 K, 3433 kPa	383 ± 2
523.52 K, 4099.2 kPa	488.8 ± 2.3
523.52 K, 6015.2 kPa	730.8 ± 3
523.53 K, 6832.9 kPa	794.9 ± 3.3
523.53 K, 7485.5 kPa	841.5 ± 3.4
523.54 K, 4499.9 kPa	551.5 ± 2.5
523.54 K, 7793.7 kPa	858.7 ± 3.5
